Experimental findings from patent US12161632B2, “Compositions and methods of treating cardiac fibrosis with ifetroban” (Cumberland Pharmaceuticals Inc., priority 2014, dated 2024) are described below.

Structures can show the parent of a compound that is named as a salt.

The test system of experiment [1] is right ventricle gene expression. Put plainly: Right ventricle gene expression, Affymetrix Mouse Gene 2.0 arrays (Example IV). It is filed as in vivo, mice. The conditions noted are these: sham surgery mice, 25 mg/kg/day, 2 weeks. The method, then:
FVB/N mice or mice with a GFP macrophage-specific lineage tracing marker (LysM-Cre) underwent pulmonary banding to directly increase load stress (or sham surgery for controls), and starting the following day received either vehicle or the thromboxane receptor antagonist Ifetroban sodium in their drinking water (25 mg/kg/day). After 2 weeks, noninvasive hemodynamics were obtained by transthoracic echocardiography and invasive hemodynamics were obtained by pressure-volume catheterization of the right heart prior to sacrifice. Hearts were assessed for fibrosis and macrophage infiltration. RNA from right ventricles were isolated and used for unbiased discovery of altered gene expression using Affymetrix Mouse Gene 2.0 arrays performed on four groups (banded or sham). LysM-Cre mouse hearts were flash-frozen whole, cross-sectioned, and assessed by microscopy for fibrosis and macrophage infiltration. Differences between groups were assessed by ANOVA and t-tests. Correlations were assessed by Spearman correlation.

The test system of experiment [2] is RV monocytes / macrophages. Put plainly: Cardiac monocytes: LysM-Cre lineage tracing and flow cytometry of RV (Example VII). It is filed as in vivo, mice. The conditions noted are these: LysM-Cre reporter mice, aspirin. How it is done:
Both male and female age-matched C57Bl/6 or FVB/NJ mice, obtained by in-house breeding, were used for pulmonary artery banding. LysM-GFP mice were obtained by cross-breeding LysM-Cre×mTomato/GFP reporter mice B6.129P2-Lyz2tm1(cre)Ifo/J (a gift from Tim Blackwell)×Gt(ROSA)26Sortm4(ACTB-tdTomato, -EGFP)Luo (JAX stock #007676). The day following surgery, mice were given either 25 mg/kg/day IFETROBAN (Cumberland Pharmaceuticals Inc., Nashville, TN) in drinking water or normal drinking water (vehicle) for 2 weeks or 6 weeks prior to hemodynamic evaluation. Mice were weighed and water was changed once a week.
TP receptors are also expressed on monocytes, and blockade of these receptors may have immune-specific effects. To determine whether the decrease in fibrosis seen with TP receptor inhibition was due to decreased macrophage infiltration or proliferation in the RV, PAB on LysM-Cre mice expressing eGFP under the LysozymeM promoter was performed, where all cells that have ever had monocyte lineage are labeled with GFP, even if they have later differentiated. […] Transgenic LysM-Cre×flox-mTomato-flox eGFP mice were used to label cells of monocyte derivation in the RV. These mice express a fluorescent red, except in cells derived from monocyte lineage (even if they have later differentiated), which express a fluorescent green. […] Flow sorting of whole RV for circulating markers found a non-significant trend towards an increase in PA-banded mice that was blocked by ifetroban.

In experiment [3] the test system is pulmonary artery banding (PAB) model of right ventricular pressure overload. Put plainly: PAB model of right ventricular pressure overload: hemodynamics, echocardiography, histology (Example VII). It is filed as in vivo. The conditions noted are these: PAB mice.

`CCCCCNC(=O)c1coc([C@H]2[C@@H](Cc3ccccc3CCC(=O)O)[C@@H]3CC[C@H]2O3)n1` [Ifetroban sodium, [1S-(1α,2α,3α,4α)]-2-[[3-[4-[(Pentylamino)carbonyl]-2-oxazolyl]-7-oxabicyclo[2.2.1]hept-2-yl]methyl]-benzenepropanoic acid, monosodium salt]: the “the same expression changes in the sham surgery group” value in experiment [1] was “not found in the sham surgery group”.

For the compound `CC(=O)Oc1ccccc1C(=O)O` [aspirin], the results for the “number of RV monocytes / green (monocyte lineage) cells after PAB” value in experiment [2] and in experiment [2] (listed as ASA) were “appeared to increase the number of RV monocytes” and “significantly increases numbers of green cells”, respectively. In experiment [3] (low-dose aspirin), the “replication of the ifetroban results (fibrosis, hypertrophy, TSP-4, TGF-beta)” value is “failed to replicate these results”. Further, in experiment [3] (oral aspirin 10 mg/kg/day, 2 weeks), the “RV fibrosis (Masson's trichrome)” value is “failed to prevent fibrosis”.
